Assay results taken from ChEMBL document CHEMBL1142464, “Synergistic effect of basic residues at positions 14-15 of nociceptin on binding affinity and receptor activation” (Bioorg Med Chem, 2008).

Experiments:
[1] = biological target: T1, Nociceptin receptor (Rattus norvegicus, UniProt P35370); test: Displacement of [3H]nociceptin from rat ORL1 receptor expressed in african green monkey COS7 cells; type: cell-based, COS-7
[2] = Stability in presence of trypsin assessed as half life of compound hydrolysis; type: ADME
[3] = biological target: T1, Nociceptin receptor; test: Activation of rat ORL1 receptor expressed in african green monkey COS7 cells by [35S]GTPgammaS binding assay; type: functional, cell-based, COS-7
[4] = Stability in presence of rat brain trypsin assessed as half life of compound hydrolysis in presence of trypsin inhibitor bacitracin by HPLC; type: ADME, tissue-based; conditions: isolated protein
[5] = Stability in presence of rat brain trypsin assessed as half life of compound hydrolysis by HPLC; type: physicochemical
[6] = Stability in presence of rat brain trypsin assessed compound degradation after 60 mins by HPLC; type: ADME; conditions: read-out: Activity
[7] = biological target: Nociceptin receptor (Rattus norvegicus) (UniProt P35370); test: Activation of rat ORL1 receptor expressed in african green monkey COS7 cells assessed as stimulation of [35S]GTPgammaS binding relative to nociceptin; type: functional, cell-based; conditions: COS-7
Chain of Nociceptin receptor (Rattus norvegicus) (P35370 whole entry): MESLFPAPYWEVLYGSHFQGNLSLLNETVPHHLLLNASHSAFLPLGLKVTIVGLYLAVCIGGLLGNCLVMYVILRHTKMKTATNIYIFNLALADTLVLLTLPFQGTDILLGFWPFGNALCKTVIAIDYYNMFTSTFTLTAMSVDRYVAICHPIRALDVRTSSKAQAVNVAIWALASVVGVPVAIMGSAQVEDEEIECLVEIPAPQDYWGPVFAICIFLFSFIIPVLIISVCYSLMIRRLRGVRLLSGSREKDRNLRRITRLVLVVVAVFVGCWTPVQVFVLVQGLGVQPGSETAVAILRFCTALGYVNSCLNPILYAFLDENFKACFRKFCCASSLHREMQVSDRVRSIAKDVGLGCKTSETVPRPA

T1 sequence (P35370 whole entry): as above

Compound | IC50 [1] | EC50 [3] | further results
CC(C)C[C@H](NC(=O)[C@H](CCCCN)NC(=O)[C@H](CCCNC(=N)N)NC(=O)[C@H](C)NC(=O)[C@H](CO)NC(=O)[C@H](CCCCN)NC(=O)[C@H](CCCNC(=N)N)NC(=O)[C@H](C)NC(=O)CNC(=O)[C@@H](NC(=O)[C@H](Cc1ccccc1)NC(=O)CNC(=O)CNC(=O)[C@@H](N)Cc1ccccc1)[C@@H](C)O)C(=O)N[C@@H](CCCCN)C(=O)N[C@@H](CC(N)=O)C(=O)N[C@@H](CCC(N)=O)C(=O)O | 0.41 nM | 5.8 nM | half-life [2]: 20 min
C[C@H](NC(=O)CNC(=O)[C@@H](NC(=O)[C@H](Cc1ccccc1)NC(=O)CNC(=O)CNC(=O)[C@@H](N)Cc1ccccc1)[C@@H](C)O)C(=O)N[C@@H](CCCN=C(N)N)C(=O)N[C@@H](CCCCN)C(=O)N[C@@H](CO)C(=O)N[C@@H](C)C(=O)N[C@@H](CCCN=C(N)N)C(=O)N[C@@H](CCCCN)C(=O)N[C@@H](Cc1ccc(O)cc1)C(=O)N[C@@H](C)C(=O)N[C@@H](CC(N)=O)C(=O)N[C@@H](CCC(N)=O)C(=O)O | 1.1 nM | 11 nM | –
C[C@H](NC(=O)CNC(=O)[C@@H](NC(=O)[C@H](Cc1ccccc1)NC(=O)CNC(=O)CNC(=O)[C@@H](N)Cc1ccccc1)[C@@H](C)O)C(=O)N[C@@H](CCCN=C(N)N)C(=O)N[C@@H](CCCCN)C(=O)N[C@@H](CO)C(=O)N[C@@H](C)C(=O)N[C@@H](CCCN=C(N)N)C(=O)N[C@@H](CCCCN)C(=O)N[C@@H](CCCN=C(N)N)C(=O)N[C@@H](CCCCN)C(=O)N[C@@H](CC(N)=O)C(=O)N[C@@H](CCC(N)=O)C(=O)O | 0.21 nM | 1.1 nM | Stability [4]: Stable; half-life [5]: 600 min; metabolised at 1 h [6]: < 10%; half-life [2]: 30 min
C[C@H](NC(=O)CNC(=O)[C@@H](NC(=O)[C@H](Cc1ccccc1)NC(=O)CNC(=O)CNC(=O)[C@@H](N)Cc1ccccc1)[C@@H](C)O)C(=O)N[C@@H](CCCNC(=N)N)C(=O)N[C@@H](CCCCN)C(=O)N[C@@H](CO)C(=O)N[C@@H](C)C(=O)N[C@@H](CCCNC(=N)N)C(=O)N[C@@H](CCCCN)C(=O)N[C@@H](CCCNC(=N)N)C(=O)N[C@@H](CCCCN)C(=O)N[C@@H](CC(N)=O)C(=O)N[C@@H](CCC(N)=O)C(=O)O | – | – | Activity [7]: 10%
CC(C)C[C@H](NC(=O)[C@H](CCCCN)NC(=O)[C@H](CCCN=C(N)N)NC(=O)[C@H](C)NC(=O)[C@H](CO)NC(=O)[C@H](CCCCN)NC(=O)[C@H](CCCN=C(N)N)NC(=O)[C@H](C)NC(=O)CNC(=O)[C@@H](NC(=O)[C@H](Cc1ccccc1)NC(=O)CNC(=O)CNC(=O)[C@@H](N)Cc1ccccc1)[C@@H](C)O)C(=O)N[C@@H](C)C(=O)N[C@@H](CC(N)=O)C(=O)N[C@@H](CCC(N)=O)C(=O)O [NOCICEPTIN] | – | – | Stability [4]: Stable; half-life [5]: 480 min; metabolised at 1 h [6]: 10%; half-life [2]: 13 min
H-FGGFTGARKRKRKLANQ-OH [listing 1 of 2 here] | 0.94 nM | 86 nM | –
H-FGGFTGARKRKRKLANQ-OH [listing 2 of 2 here] | – | – | Activity [7]: > 90%
H-FGGFTGARKSARKAANQ-OH | 1.5 nM | 11 nM | –
H-FGGFTGARKSARKFANQ-OH | 1.1 nM | 9 nM | –
H-FGGFTGARKSARKKANQ-OH | 0.41 nM | 4.1 nM | –
H-FGGFTGARKSARKKKNQ-OH | 0.16 nM | 1.1 nM | –
H-FGGFTGARKSARKKRNQ-OH | 0.21 nM | 1.3 nM | –
H-FGGFTGARKSARKLARK-OH | 0.54 nM | 2.7 nM | –
H-FGGFTGARKSARKLFNQ-OH | 1 nM | 12 nM | –
H-FGGFTGARKSARKLLNQ-OH | 0.48 nM | 10 nM | –
H-FGGFTGARKSARKLRNQ-OH | 0.31 nM | 3.2 nM | –
H-FGGFTGARKSARKLVNQ-OH | 2.2 nM | 30 nM | –
H-FGGFTGARKSARKLWNQ-OH | 2.1 nM | 50 nM | –
H-FGGFTGARKSARKLYNQ-OH | 1 nM | 33 nM | –
H-FGGFTGARKSARKRANQ-OH | 0.33 nM | 4 nM | half-life [2]: 23 min
H-FGGFTGARKSARKRKRK-OH | 0.42 nM | 2.3 nM | –
H-FGGFTGARKSARKRRNQ-OH | 0.27 nM | 0.98 nM | –
H-FGGFTGARKSARKVANQ-OH | 1.1 nM | 15 nM | –
H-FGGFTGARKSARKWANQ-OH | 0.41 nM | 5.8 nM | –
H-FGGFTRKRKSARKLANQ-OH [listing 1 of 2 here] | 13 nM | 870 nM | –
H-FGGFTRKRKSARKLANQ-OH [listing 2 of 2 here] | – | – | Activity [7]: 60%
